Where two headings read alike, the source gives them in different places.
What was measured:
[1] = biological target: T1, bradykinin 1 receptor (B1R) of the rat (Rattus norvegicus, UniProt P97583); experiment: Functional investigation on the rat bradykinin 1 receptor (B1R), Ca2+ FLIPR assay in CHO K1 rB1R cells; assay type: cell-based
T1 construct: expressed in transfected cells; host or cells: CHO K1 cells
T1 sequence (P97583 1-337): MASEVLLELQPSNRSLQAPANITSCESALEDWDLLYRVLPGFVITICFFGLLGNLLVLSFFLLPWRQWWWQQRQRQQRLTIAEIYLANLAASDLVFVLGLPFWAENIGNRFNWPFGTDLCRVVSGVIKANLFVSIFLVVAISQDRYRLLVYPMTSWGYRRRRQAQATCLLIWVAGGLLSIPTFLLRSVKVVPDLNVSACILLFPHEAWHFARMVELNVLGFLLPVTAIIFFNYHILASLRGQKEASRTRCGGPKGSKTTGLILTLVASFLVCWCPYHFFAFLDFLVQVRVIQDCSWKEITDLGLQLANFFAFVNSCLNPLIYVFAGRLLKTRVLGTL
Text: (§1) Functional Investigation on the Human Bradykinin 1 Receptor (B1R)
(§2) The agonistic or antagonistic action of substances can be determined on the bradykinin 1 receptor (B1R) of the human species and rats with the following assay. In accordance with this assay, the Ca^2+ inflow through the channel is quantified with the aid of a Ca^2=-sensitive dyestuff (type Fluo-4, Molecular Probes Europe BV, Leiden, Holland) in a fluorescent imaging plate reader (FLIPR, Molecular Devices, Sunnyvale, USA).
(§3) Chinese hamster ovary cells (CHO K1 cells) transfected stably with the human B1R gene (hB1R cells) or the B1R gene of the rat (rB1R cells) are used. For functional studies, these cells are plated out on black 96-well plates with a clear base (BD Biosciences, Heidelberg, Germany or Greiner, Frickenhausen, Germany) in a density of 20,000-35,000 cells/well. The cells are left overnight at 37° C. and 5% CO2 in culture medium (hB1R cells: Nutrient Mixture Ham's F12, Gibco Invitrogen GmbH, Karlsruhe, Germany or DMEM, Sigma-Aldrich, Taufkirchen, Germany; rB1R cells: D-MEM/F12, Gibco Invitrogen GmbH, Karlsruhe, Germany) with 10 vol. % of FBS (foetal bovine serum, Gibco Invitrogen GmbH, Karlsruhe, Germany or PAN Biotech GmbH, Aidenbach, Germany).
(§4) On the following day, the cells are loaded for 60 min at 37° C. with 2.13 μM Fluo-4 (Molecular Probes Europe BV, Leiden, The Netherlands) in HBSS buffer (Hank's buffered saline solution, Gibco Invitrogen GmbH, Karlsruhe, Germany) with 2.5 mM probenecid (Sigma-Aldrich, Taufkirchen, Germany) and 10 mM HEPES (Sigma-Aldrich, Taufkirchen, Germany). The plates are then washed 2× with HBSS buffer, and HBSS buffer which additionally contains 0.1% of BSA (bovine serum albumin; Sigma-Aldrich, Taufkirchen, Germany), 5.6 mM glucose and 0.05% of gelatine (Merck KGaA, Darmstadt, Germany) is added. After a further incubation of 20 minutes at room temperature, the plates are inserted into the FLIPR for the Ca^2+ measurement.
(§5) Alternatively, the plates are washed with buffer A (15 mM HEPES, 80 mM NaCl, 5 mM KCl, 1.2 mM CaCl2, 0.7 mM MgSO4, 2 g/l glucose, 2.5 mM probenecid), buffer A is added and the plates are loaded with 2.5 μM Fluo-4 and 0.025% of Pluronic F127 (Sigma-Aldrich, Taufkirchen, Germany). Thereafter, the cells are washed 2× with buffer A and incubated for 30 minutes with buffer A, which additionally contains 0.05% of BSA and 0.05% of gelatine, at room temperature and thereafter inserted into the FLIPR for the Ca^2+ measurement.
(§6) The Ca^2+-dependent fluorescence is measured before and after addition of substances (λex=488 nm, λem=540 nm). Quantification is by measurement of the highest fluorescence intensity (FC, fluorescence counts) over time.
(§7) The FLIPR protocol consists of 2 additions of substance. Test substances (10 μM) are first pipetted on to the cells and the Ca^2+ inflow is compared with the control (hB1R: Lys-Des-Arg^9-bradykinin >=50 nM; rB1R: Des-Arg^9-bradykinin 10 μM). This gives the information in % activation based on the Ca^2+ signal after addition of Lys-Des-Arg^9-bradykinin (>=50 nM) or Des-Arg^9-bradykinin (10 μM).
(§8) After incubation for 10-20 minutes, Lys-Des-Arg^9-bradykinin (hB1R) or Des-Arg^9-bradykinin (rB1R) is applied in the concentration of the EC80 and the inflow of Ca^2+ is likewise determined.
(§9) Antagonists lead to a suppression of the Ca^2+ inflow. % inhibition compared with the maximum achievable inhibition is calculated.
(§10) To determine the IC50 value, the substances are added in various concentrations. Duplicate or triplicate determinations (n=2 or n=3) are carried out, and these are repeated in at least one further independent experiment (N>=2).
(§11) Preferably, the compounds have a B1R antagonistic action on the human receptor and/or on the rat receptor. The following data are given by way of example in the following table: (In this, “B1R Ant. h” represents “B1R antagonism human” and “B1R Ant. r” represents “B1R antagonism rat”)

[2] = biological target: T2, human bradykinin 1 receptor (B1R) (Homo sapiens, UniProt P46663); experiment: Functional investigation on the human bradykinin 1 receptor (B1R), Ca2+ FLIPR assay in CHO K1 hB1R cells; assay type: cell-based
T2 construct: expressed in transfected cells; host or cells: CHO K1 cells
T2 sequence (P46663 1-353): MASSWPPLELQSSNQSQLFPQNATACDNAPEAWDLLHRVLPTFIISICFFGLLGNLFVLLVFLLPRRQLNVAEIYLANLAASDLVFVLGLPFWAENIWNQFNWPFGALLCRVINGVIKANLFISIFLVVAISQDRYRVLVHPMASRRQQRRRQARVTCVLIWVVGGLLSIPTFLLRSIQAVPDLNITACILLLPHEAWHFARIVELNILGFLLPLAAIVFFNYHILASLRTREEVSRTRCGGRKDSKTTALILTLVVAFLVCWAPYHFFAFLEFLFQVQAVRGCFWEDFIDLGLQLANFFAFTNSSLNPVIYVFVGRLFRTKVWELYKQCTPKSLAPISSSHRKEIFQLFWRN
Text: as §1, §2, §3, §4, §5, §6, §7, §8, §9, §10, §11

[3] = CHO-K1, B1R antagonism rat, test substance 10 μM, Ca2+ FLIPR, CHO K1 rB1R cells, read-out: B1R Ant. r [10 μM] % Inhibition
[4] = CHO-K1, B1R antagonism human, test substance 10 μM, Ca2+ FLIPR, CHO K1 hB1R cells, read-out: B1R Ant. h [10 μM] % Inhibition

| SMILES | inhibition at 10 µM [1, 3] [%] | inhibition at 10 µM [2, 4] [%] | further results |
| --- | --- | --- | --- |
| O=C(COCCN(C1CC1)S(=O)(=O)c1c(Cl)cc(Cl)cc1Cl)NC1CCC(C(c2ccccc2)N2CCOCC2)CC1 (stereo not drawn) [Example 605, 2-{2-[cyclopropyl-(2,4,6-trichlorobenzenesulfonyl)-amino]-ethoxy}-N-[4-(morpholin-4-yl-phenylmethyl)-cyclohexyl]-acetamide] | 38 | 40 | – |
| CN(CCOCC(=O)NC1CCC(C(c2ccccc2)N2CCOCC2)CC1)S(=O)(=O)c1c(Cl)cc(Cl)cc1Cl (stereo not drawn) [Example 607, 2-{2-[methyl-(2,4,6-trichlorobenzenesulfonyl)-amino]-ethoxy}-N-[4-(morpholin-4-ylphenylmethyl)-cyclohexyl]-acetamide] | – | – | B1R Ant. r [10 μM] % Inhibition ([1]; B1R antagonism rat, test substance 10 μM, Ca2+ FLIPR, CHO K1 rB1R cells): 3%; B1R Ant. h [10 μM] % Inhibition ([2]; B1R antagonism human, test substance 10 μM, Ca2+ FLIPR, CHO K1 hB1R cells): 12% |
| O=C(COC1CCN(S(=O)(=O)c2c(Cl)cc(Cl)cc2Cl)C1)NC1CCC(C(c2ccccc2)N2CCOCC2)CC1 (stereo not drawn) [Example 610, N-[4-(morpholin-4-ylphenylmethyl)-cyclohexyl]-2-[1-(2,4,6-trichlorobenzenesulfonyl)-pyrrolidin-3-yloxy]-acetamide] | 5 | 12 | – |
| CN(C)C(c1ccccc1)C1CCC(NC(=O)CNC(=O)c2nc(-c3cc(Cl)cc(Cl)c3)no2)CC1 (stereo not drawn) [Example 760, 3-(3,5-dichloro-phenyl)-[1,2,4]oxadiazole-5-carboxylic acid {[4-(dimethylamino-phenyl-methyl)-cyclohexylcarbamoyl]-methyl}-amide] | -4 | 66 | – |
| CN(C)C(c1ccccc1)C1CCC(NC(=O)CCNC(=O)c2nc(-c3cc(Cl)cc(Cl)c3)no2)CC1 (stereo not drawn) [Example 761, 3-(3,5-dichloro-phenyl)-[1,2,4]oxadiazole-5-carboxylic acid {2-[4-(dimethylamino-phenyl-methyl)-cyclohexylcarbamoyl]-ethyl}-amide] | – | – | inhibition at 10 µM ([1]; CHO-K1, read-out: B1R Ant. r [10 μM] % Inhibition): 15%; inhibition at 10 µM ([2]; CHO-K1, read-out: B1R Ant. h [10 μM] % Inhibition): 34% |
| Cc1cc(Cl)cc(Cl)c1-c1noc(C(=O)NCC(=O)NC2CCC(C(c3ccccc3)N(C)C)CC2)n1 (stereo not drawn) [Example 762, 3-(2,4-dichloro-6-methyl-phenyl)-[1,2,4]oxadiazole-5-carboxylic acid {[4-(dimethylamino-phenyl-methyl)-cyclohexylcarbamoyl]-methyl}-amide] | 25 | 73 | – |
| COc1ccccc1-c1noc(C(=O)NCC(=O)NC2CCC(C(c3ccccc3)N(C)C)CC2)n1 (stereo not drawn) [Example 763, 3-(2-methoxy-phenyl)-[1,2,4]oxadiazole-5-carboxylic acid {[4-(dimethylamino-phenyl-methyl)-cyclohexylcarbamoyl]-methyl}-amide] | 22 | -10 | – |
| CN(C)C(c1ccccc1)C1CCC(NC(=O)CNC(=O)c2nc(-c3cccs3)no2)CC1 (stereo not drawn) [Example 764, 3-thiophen-2-yl-[1,2,4]oxadiazole-5-carboxylic acid {[4-(dimethylamino-phenyl-methyl)-cyclohexylcarbamoyl]-methyl}-amide] | -31 | 17 | – |
| CN(C)C(c1ccccc1)C1CCC(NC(=O)CNC(=O)c2nc(-c3ccc(C(F)(F)F)cc3)no2)CC1 (stereo not drawn) [Example 765, 3-(4-trifluoromethyl-phenyl)-[1,2,4]oxadiazole-5-carboxylic acid {[4-(dimethylamino-phenyl-methyl)-cyclohexylcarbamoyl]-methyl}-amide] | 29 | 15 | – |
| CN(C)C(c1ccccc1)C1CCC(NC(=O)CNC(=O)c2nc(-c3ccc(C(C)(C)C)cc3)no2)CC1 (stereo not drawn) [Example 766, 3-(4-tert-butyl-phenyl)-[1,2,4]oxadiazole-5-carboxylic acid {[4-(dimethylamino-phenyl-methyl)-cyclohexylcarbamoyl]-methyl}-amide] | -9 | 6 | – |
| Cc1ccc(F)cc1-c1noc(C(=O)NCC(=O)NC2CCC(C(c3ccccc3)N(C)C)CC2)n1 (stereo not drawn) [Example 767, 3-(5-fluoro-2-methyl-phenyl)-[1,2,4]oxadiazole-5-carboxylic acid {[4-(dimethylamino-phenyl-methyl)-cyclohexylcarbamoyl]-methyl}-amide] | 17 | 43 | – |
| CN(C)C(c1ccccc1)C1CCC(NC(=O)CCNC(=O)c2nc(-c3ccc4c(c3)OCO4)no2)CC1 (stereo not drawn) [Example 768, 3-benzo[1,3]dioxol-5-yl-[1,2,4]oxadiazole-5-carboxylic acid {2-[4-(dimethylamino-phenyl-methyl)-cyclohexylcarbamoyl]-ethyl}-amide] | -2 | -3 | – |
| CN(C)C(c1ccccc1)C1CCC(NC(=O)CNC(=O)c2nc(CS(=O)(=O)c3ccccc3)no2)CC1 (stereo not drawn) [Example 769, 3-benzenesulfonylmethyl-[1,2,4]oxadiazole-5-carboxylic acid {[4-(dimethylamino-phenyl-methyl)-cyclohexylcarbamoyl]-methyl}-amide] | 39 | 15 | – |
| CN(C)C(c1ccccc1)C1CCC(NC(=O)CNC(=O)c2nc(-c3c(Cl)cccc3Cl)no2)CC1 (stereo not drawn) [Example 770, 3-(2,6-dichloro-phenyl)-[1,2,4]oxadiazole-5-carboxylic acid {[4-(dimethylamino-phenyl-methyl)-cyclohexylcarbamoyl]-methyl}-amide] | 16 | 53 | – |
| CN(C)C(c1ccccc1)C1CCC(NC(=O)CCNC(=O)c2nc(-c3ccccn3)no2)CC1 (stereo not drawn) [Example 771, 3-pyridin-2-yl-[1,2,4]oxadiazole-5-carboxylic acid {2-[4-(dimethylamino-phenyl-methyl)-cyclohexylcarbamoyl]-ethyl}-amide] | 8 | -16 | – |

Source: US8106055B2, “Substituted amide compounds” (Gruenenthal GmbH, priority 2007, dated 2012)
